Measurements as given in US6747039B2, “Aza-benzothiopyranoindazoles with antitumor activity” (Albany Molecular Research, Inc., priority 2002, dated 2004).

Each compound was assayed on HeLa S-3 cells (assay: Inhibition of cell growth (sulforhodamine B) to determine GI50). Settings: Homo sapiens, HeLa S3; HeLa cells; Table 5, aza-analogs; read-out: IC50 (aza-analogs).
Type: cell-based
Protocol: Growth inhibition (GI50) values were measured with HeLa S-3 cells selected for growth on plastic. The procedure was based on the protocol of Skehan et al. (Skehan, P., et al., J. Natl. Cancer Inst., 82:1107-1112 (1990), which is hereby incorporated by reference). HeLa cells were plated at 2×10^4 cells/well in 96 well plates. One day later, a control plate was fixed by addition of TCA to 5%. After five rinses with tap water, the plate was air dried and stored at 4° C. Test compounds were added to the remaining plates at 10-fold dilutions between 0.01 and 100 μM. Two days later, all plates were fixed as described above. Cells were then stained by the addition of 100 μl per well of 0.4% sulforhodamine B (SRB) in 1% acetic acid for 30 min at 4° C. Wells were then quickly rinsed 5× with acetic acid (1%) and allowed to air dry. The SRB was then solubilized by the addition of 100 μl per well of unbuffered 10 mM Tris base. Dye was quantified by measuring absorbance at 490 nm on a Molecular Devices kinetic microplate reader. Growth at each inhibitor concentration relative to the untreated control was calculated according to the following equation: percent growth=100×(T−To)/(C−To), where T was the average optical density (OD) of the test wells after 2 days of treatment, To was the average OD of the wells in the control plate on day 0 and C was the average OD of untreated wells. Plots of percent growth versus inhibitor concentration were used to determine the GI50.
The data below shown in Table 4 summarizes the in vitro cyclin/cdk inhibition constants (IC50) of HeLa Cells for the compounds of the current invention.

IC50	SMILES
3000 nM	CCN(CC)CCNc1cccc2sc3ccncc3c(=O)c12
1000 nM	CCN(CC)CCNc1ccc(CNC=O)c2sc3ccncc3c(=O)c12
700 nM	CCN(CC)CCNc1ccc(CN)c2sc3ccncc3c(=O)c12
400 nM	CCN(CC)CCNc1ccc(CNS(C)(=O)=O)c2sc3ccncc3c(=O)c12
300 nM	CCN(CC)CCNc1ccc(CNC(=O)OC)c2sc3ccncc3c(=O)c12
1000 nM	CCN(CC)CCn1nc2c3c(cccc31)Sc1ccncc1-2
200 nM	CCN(CC)CCn1nc2c3c(c(CN)ccc31)Sc1ccncc1-2 [drawing 112]
200 nM	CCN(CC)CCn1nc2c3c(c(CNC=O)ccc31)Sc1ccncc1-2 [drawing 114]
100 nM	CCN(CC)CCn1nc2c3c(c(CNC(=O)OC)ccc31)Sc1ccncc1-2 [drawing 116]
300 nM	CCN(CC)CCn1nc2c3c(c(CNS(C)(=O)=O)ccc31)Sc1ccncc1-2 [drawing 118]
500 nM	CCN(CC)CCn1nc2c3c(c(CNC(=O)OC)ccc31)Sc1ncccc1-2 [drawing 120]
300 nM	CCN(CC)CCn1nc2c3c(c(CNS(C)(=O)=O)ccc31)Sc1ncccc1-2 [drawing 122]
200 nM	CCN(CC)CCn1nc2c3c(c(CN)ccc31)Sc1ncccc1-2 [drawing 124]
500 nM	CCN(CC)CCn1nc2c3c(c(CNC=O)ccc31)Sc1ncccc1-2 [drawing 126]

Same assay, conditions: Homo sapiens, HeLa S3; HeLa cells; Table 5, carbocyclic congeners; read-out: IC50 (carbocyclic congeners)

IC50	SMILES
> 10000 nM	CCN(CC)CCNc1cccc2sc3ccccc3c(=O)c12 [reference compound]
3000 nM	CCN(CC)CCNc1ccc(CNC=O)c2sc3ccccc3c(=O)c12 [reference compound]
600 nM	CCN(CC)CCNc1ccc(CN)c2sc3ccccc3c(=O)c12 [reference compound]
9000 nM	CCN(CC)CCn1nc2c3c(cccc31)Sc1ccccc1-2 [reference compound]
1000 nM	CCN(CC)CCn1nc2c3c(c(CN)ccc31)Sc1ccccc1-2 [reference compound]
1000 nM	CCN(CC)CCn1nc2c3c(c(CNC=O)ccc31)Sc1ccccc1-2 [reference compound]
3000 nM	CCN(CC)CCn1nc2c3c(c(CNC(=O)OC)ccc31)Sc1ccccc1-2 [reference compound]
900 nM	CCN(CC)CCn1nc2c3c(c(CNS(C)(=O)=O)ccc31)Sc1ccccc1-2 [reference compound]

Same assay, conditions: Homo sapiens, HeLa S3; Table 6, comparison of nitrogen position, first compound of pair

GI50	SMILES
100 nM	CCN(CC)CCn1nc2c3c(c(C)ccc31)Sc1ccncc1-2
400 nM	CCN(CC)CCNc1ccc(C)c2sc3ccncc3c(=O)c12
200 nM	CCN(CC)CCn1nc2c3c(c(CN)ccc31)Sc1ccncc1-2 [drawing 127]
50 nM	CCN(CC)CCn1nc2c3c(c(CNC=O)ccc31)Sc1ccncc1-2 [drawing 129]
100 nM	CCN(CC)CCn1nc2c3c(c(CNC(=O)OC)ccc31)Sc1ccncc1-2 [drawing 131]
200 nM	CCN(CC)CCn1nc2c3c(c(CNS(C)(=O)=O)ccc31)Sc1ccncc1-2 [drawing 133]

Same assay, conditions: Homo sapiens, HeLa S3; Table 6, comparison of nitrogen position, second compound of pair

GI50	SMILES
600 nM	CCN(CC)CCn1nc2c3c(c(C)ccc31)Sc1ncccc1-2
3000 nM	CCN(CC)CCNc1ccc(C)c2sc3ncccc3c(=O)c12
200 nM	CCN(CC)CCn1nc2c3c(c(CN)ccc31)Sc1ncccc1-2 [drawing 128]
500 nM	CCN(CC)CCn1nc2c3c(c(CNC=O)ccc31)Sc1ncccc1-2 [drawing 130]
500 nM	CCN(CC)CCn1nc2c3c(c(CNC(=O)OC)ccc31)Sc1ncccc1-2 [drawing 132]
300 nM	CCN(CC)CCn1nc2c3c(c(CNS(C)(=O)=O)ccc31)Sc1ncccc1-2 [drawing 134]
